Assay results as given in patent publication US5147855A, “Conjugates of VIP and active fragments thereof with hydrophobic moieties and topical compositions for male impotence” (Yeda Research and Development Co. Ltd., priority 1988, dated 1992).
Values joined by “and” are separate entries in the source; they are usually repeats but may differ in a detail not shown here. Equal values may be shown once. No end group written: not given here. NH = not defined here; oleyl = oleyl moiety

Legend:
[1] = tested on: sexual behaviour of male rats; assay: Sexual behaviour of castrated male rats, topical application of several materials (Table III); type: in vivo, rat; design: key to Ejaculations (E): E = Ejaculations; settings: for Ejaculations (E) / No. Ob. / Int. Latency: individual rats; for No. Ob. / Int. Latency: castrated 14 days earlier, testosterone 4 μg/100 g BW daily; for Int. Latency: in s
Excerpt: (§1) The animal model -- All tested rats (Wistar derived from the departmental colony, Hormone Research Department, at the Weizmann Institute of Science), are sexually experienced male rats around 3 months of age (body weight ~250 g). At this age, the rats are castrated by removal of the testes and injected daily with testosterone for at least 14 consecutive days.
(§2) All rats (males and females) that take part in the experiment are kept in a 12-hour light 12-hour dark cycle. Prior to testing, each male is put in a separate cage for at least 1 hour. A sexually receptive female is introduced to each male. Females were tested for their receptivity by vaginal smearings. The latencies of mounts and intromissions are recorded.
6 rats, 120 days old, sexually experienced, were tested. The rats were castrated 14 days earlier and were injected with 4 μg/100 g BW of testosterone daily. […] All 6 materials were tested by topical application.

penile erection = settings: injection; cited from earlier work
[2] = tested on: sexual behaviour of male rats; assay: Sexual behaviour of male rats after topical application of ointment (Table IV); type: in vivo; settings: ointment applied onto the rat's penis
Excerpt: as §1
as §2, with “recorded. […] Using castrated animals we achieved decreased sexual activity which is expressed by longer intervals between intromissions and less intromissions during the 15 min observation periods.” for “recorded.”
Preparation of Ointment -- Lanolin (1 g), water (3 g) DMSO (7 drops) and 10 mg of stearyl-VIP were manually homogenized in a mortar. An amount of paste, containing 30-50 μg peptide was applied onto the rat's penis and sexual behaviour, following the methodology previously described, was monitored.
(B) Using the same protocol as in (A) an ointment of VIP-oleyl was prepared and tested.

[3] = tested on: sexual behaviour of male rats; assay: Sexual behaviour of castrated, testosterone-treated male rats after intravenous injection (Table I); type: in vivo, rat; design: key to Ejaculations (E): E = Ejaculations
Excerpt: as §1
as §2, with “recorded. […] Using castrated animals we achieved decreased sexual activity which is expressed by longer intervals between intromissions and less intromissions during the 15 min observation periods.” for “recorded.”
Initially, we tested a few VIP analogs by injection (intravenously 5-10 μg/animal). As a control we injected saline at identical volumes (5-10 μl).
Rats were castrated and injected daily for 15 consecutive days with testosterone at 4 μg/100 g body weight (BW). Tests were performed with stearyl-VIP or VIP at 10 μg/animal.

[4] = tested on: sexual behaviour of male rats; assay: Sexual behaviour of castrated male rats after topical application in DMSO (Table II); type: in vivo, rat; design: key to Ejaculations (E): E = Ejaculations; settings: for Effect on sexual activity (words): compared with DMSO control
Excerpt: as §1
as §2, with “recorded. […] Using castrated animals we achieved decreased sexual activity which is expressed by longer intervals between intromissions and less intromissions during the 15 min observation periods.” for “recorded.”
As we have obtained positive results with stearyl-VIP by injection we have now developed a topical application method. This was achieved by mixing 20 μl of 1 μg/ml VIP-stearyl with 10 μl dimethyl sulfoxide (DMSO) and direct topical application on the sex organ.
Rats were castrated and injected daily for 16 consecutive days with testosterone at 2 μg/100 g BW. Testing was performed by topical application of stearyl-VIP-20 μg/20 μl mixed with 10 μl DMSO and compared to topical application of 30 μl DMSO.

[5] = individual castrated rats, testosterone 4 μg/100 g BW daily 15 days, injection 10 μg/animal, listed as VIP stearyl

CCCCCCCCCCCCCCCCCC(=O)O [Stearic acid, reference compound]
Ejaculations (E) [1]: E
No. Ob. [1]: 19 and 21
Int. Latency [1]: 26 ± 1 and 18 ± 3 and 36 ± 2

CC(COc1ccccc1)N(CCCl)Cc1ccccc1 (stereo not drawn) [phenoxybenzamine]
Erection (penile erection): Erection was also obtained

Stearyl-VIP
Decrease (shortening) in intromission latency [2]: about 25%
Increase in ejaculations [2]: two-fold
Activity upon topical application [1]: the most active analog
Change in latency ([1]; 6 rats): shortening of latency
Change in number of ejaculations ([1]; 6 rats): clear increase in the number of ejaculations
Change in number of intromissions ([1]; 6 rats): increase in number of intromissions
Ejaculations (E) [1]: E
No. Ob. [1]: 6 and 28 and 20 and 49 and 31
Int. Latency [1]: 66 ± 15 and 18 ± 3 and 18 ± 2 and 12 ± 3 and 26 ± 1
Intromission latency [3, 5]: 17 ± 3 s and 28 ± 7 s and 50 ± 17 s and 33 ± 6 s and 37 ± 6 s and 56 ± 8 s and 45 ± 7 s
Obs. = Number of intromissons per 15 minute test period [3, 5]: 7 and 4 and 12 and 20 and 14 and 6
Ejaculations (E) ([3]; individual castrated rats, injection 10 μg/animal): E
Effect on sexual activity (words) ([3]; injection): potentiates sexual activity in a comparable manner to VIP
Obs. (number of intromissions) ([4]; individual castrated rats, testosterone 2 μg/100 g BW daily 16 days, topical 20 μg/20 μl mixed with 10 μl DMSO): 21 and 14 and 10 and 3 and 11 and 25
Intromission latency ([4]; individual castrated rats, testosterone 2 μg/100 g BW daily 16 days, topical 20 μg/20 μl mixed with 10 μl DMSO, in s): 23 ± 4 and 29 ± 4 and 32 ± 8 and 16 ± 3 and 38 ± 10 and 18 ± 7 and 24 ± 4
Ejaculations (E) ([4]; individual castrated rats, topical in DMSO): E
Effect on sexual activity (words) ([4]; topical in DMSO): remarkable sexual arousal
Effect on sexual activity (words) ([4]; topical in DMSO, listed as StearylVIP): rats B2 and A3 were sexually active only after

VIP-oleyl: VIP coupled to an oleyl moiety, tested as an ointment (HSDAVFTDNYTRLRKQMAVKKYLNSILN-{NH-oleyl}; ends and bridges not checked; UniProt P01282 125-152, looked up)
Decrease (shortening) in intromission latency [2]: ~ 10%
Increase in ejaculations [2]: increased, though much less than stearyl-VIP
